Tested on: eIF2-GTP-Met-tRNAi ternary complex
Test: Ternary complex assay (dual luciferase, firefly/renilla ratio) in stable KLN-tTA/pBISA-DL(ATF-4) cells; HTS and hit confirmation
Type: cell-based, mouse
Design: Activity 10 uM / Activity 2.5 uM / Activity 5 uM: unit not given here
Conditions: confirmed hits of the screen (Table 5); for Activity 2.5 uM: compound at 2.5 uM; for Activity 10 uM: compound at 10 uM; for Activity 5 uM: compound at 5 uM

Compound | Activity 2.5 uM | Activity 10 uM | Activity 5 uM
Nc1nc2c(N)cc(C(F)(F)F)cc2nc1-c1ccccc1 [Compound 645170] | 3 | 5.1 | –
CSC(=Nc1nc2ccc([N+](=O)[O-])cc2s1)SC [Compound 327371] | – | 22.247 | 13.29
CCSc1nnc(-c2ccccc2)nc1Cc1ccc(OC)cc1 [Compound 655141] | 2.18 | 3.91 | –
O=[N+]([O-])[O-].O=[N+]([O-])[O-].[Au].[Au].c1ccc([P-]c2ccccc2)cc1.c1ccc([P-]c2ccccc2)cc1 [Compound 652594] | 1.46 | 14.89 | –
CCCCc1ccc2nc3cc4ccccc4cc3nc2c1 [Compound 100622] | 2.25 | 3.12 | –
CN(C)c1ccc(C=Cc2ccnc3ccccc23)cc1.Cl [Compound 63346] | – | 6.8235 | 6.234
Nc1ccc(O)c(-c2ccccc2)c1 [Compound 409777] | 20.85 | 5.55 | –
c1ccc(-c2cnn3c(-c4ccccc4)cnnc23)cc1 [Compound 355167] | 3.09 | 4.17 | –
COc1ccc2c(c1)CCc1c(CO)c(COC(=O)NC(C)C)n(C)c1-2 [Compound 627459] | 1.68 | 7.21 | –
[CH+]=CC1([O][Sn-]([IH+])([c]2ccccc2)[c]2ccccc2)CCCCCC1 [Compound 671441] | 5.35 | – | –
CCCCCCCCCCCC[n+]1ccc(C)cc1C.Cc1ccc(S(=O)(=O)[O-])cc1 [Compound 78949] | – | 7.7 | 4.1
COc1c(O)c2c(=O)cc3c4c5c(cc(=O)c6c(O)c(OC)c(CC(C)O)c(c(c1CC(C)O)c24)c65)OCO3 (stereo not shown) [Compound 234486] | 10 | – | –
CCC[CH2][Sn]([CH2]CCC)([CH2]CCC)[n]1ccnc1 [Compound 179739] | 0.98 | 3.62 | –
O=C(N/N=C/c1ccccc1[O-])c1ccccc1O.O=C(N/N=C/c1ccccc1[O-])c1ccccc1O.[Mn+2] [Compound 610051] | 1.52 | 9.23 | –
CCC[N+]1=C(/C=C/c2cc(C)c3cccnc3c2O)C(C)(C)c2ccccc21 [Compound 91815] | 3.3 | 15.17 | –
CN1c2cccc[c]2[Sn]([CH3])([CH3])[c]2ccccc21 [Compound 118028] | – | 4.1 | –
CCCN(CCC)c1c([N+](=O)[O-])cc(S(N)(=O)=O)cc1[N+](=O)[O-] [Compound 648479] | 2.55 | 3.37 | –
F[C-](F)C(F)(F)C(F)(F)C(F)(F)C(F)(F)C(F)(F)C(F)(F)F.[CH]1[CH][CH][CH][CH]1.[Co+][I].c1ccc(P(CCP(c2ccccc2)c2ccccc2)c2ccccc2)cc1 [Compound 633992] | 13.09 | – | –
COC1OC(CI)C(OC(=O)c2ccccc2)C(OC(=O)c2ccccc2)C1OC(=O)c1ccccc1 (stereo not shown) [Compound 403488] | 1.55 | 4.41 | –
CCN(CC)C(=S)[S-].CCN(CC)C(=S)[S-].[Cu+2] [Compound 1337] | 7.15 | – | –
O=C1C(c2ccc([N+](=O)[O-])cc2)=C(Cl)C(=O)c2c(O)cccc21 [Compound 656075] | 2.33 | 7.97 | –
O=C(O)Cc1ccc(O)c(O)c1.[Pt].c1ccc([PH+](c2ccccc2)c2ccccc2)cc1.c1ccc([PH+](c2ccccc2)c2ccccc2)cc1 [Compound 377376] | 0.96 | 5.14 | –
CSC1=CC(=O)C=C(C)C1=O [Compound 119026] | – | 12.6 | 4
Nc1nc(=S)c2c(nc[n]2[Hg][c]2ccc([N+](=O)[O-])cc2)[nH]1 [Compound 631945] | 0.76 | 5.72 | –
c1ccc(-c2cc3ccccc3[nH]2)nc1 [Compound 112668] | – | 3.3905 | 2.854
CC(=O)Oc1c2c(c(CC=C(C)C)c3c1C(=O)C1=CC4CC5C(C)(C)OC(C/C=C(/C)C(=O)O)(C4=O)C15O3)OC(C)(CCC=C(C)C)C=C2 (stereo not shown) [Compound 139221] | – | 9 | 2.1
Cn1c2ccccc2c2c(-c3ccccc3)cc3c(c21)C(=O)C=CC3=O [Compound 661225] | 1.76 | 25.16 | –

Compound | Activity 2.5 uM | Activity 10 uM | Activity 5 uM
Clc1cccc2ccc(-c3cc4ccccc4s3)nc12 [Compound 71689] | – | 7.139 | 5.724
C[N+](C)=C1C=CC(=C2C=C(c3ccccc3)Oc3ccccc32)C=C1 [Compound 55869] | – | 13.613 | 13.24
C[C@]12CC[C@H]3[C@@H](CCC4=CC(=O)CC[C@@H]43)[C@@H]1CC[C@@]2(O)C#CC#C[C@]1(O)CC[C@H]2[C@@H]3CCC4=CC(=O)CC[C@@H]4[C@H]3CC[C@@]21C [Compound 59465] | – | 6.8 | 1.8
CCN(CC)Cc1cc(Nc2c3ccccc3nc3c2[nH]c2ccccc23)cc(CN(CC)CC)c1O.Cl [Compound 656711] | 0.59 | 6.66 | –
Clc1ccccc1-c1ncc(-c2ccccc2)o1 [Compound 90299] | 2.1 | 3.21 | –
CCCCC[CH2][Sn]([CH2]CCCCC)([CH2]CCCCC)[NH]S(=O)(=O)c1ccc(C)cc1 [Compound 179762] | 0.72 | 18.35 | –
NNc1nc2ccc([N+](=O)[O-])cc2s1 [Compound 158091] | 1.66 | 4.83 | –
COc1ccc2nc3cccc([N+](=O)[O-])c3c(NCCCO)c2c1 [Compound 673797] | 2.54 | 4.7 | –
Cc1ccc2c(c1)SCc1c-2[nH]c2ccccc12 [Compound 150787] | 2.94 | 5.6 | –
CCN(CC)CCCC(C)n1c(SC)nc2cc(Cl)ccc21 (stereo not shown) [Compound 13268] | 1.46 | 3.18 | –
Cc1cc(N(CCCl)CCCl)ccc1CN1CCCN(Cc2ccc(N(CCCl)CCCl)cc2C)C1c1ccccc1O [Compound 88655] | 0.7 | 18.32 | –
Br.CN1CCC2(C)CC(Br)(Cc3ccccc32)C1Cl (stereo not shown) [Compound 349125] | 0.47 | 13.75 | –
[Cl][Sn]([CH2][CH2][Sn]([Cl])([c]1ccccc1)[c]1ccccc1)([c]1ccccc1)[c]1ccccc1 [Compound 620291] | 8.39 | 9.07 | –
Cc1cnccc1N=Nc1ccc(N(C)C)cc1 [Compound 170639] | 3.93 | 5.38 | –
[Cl][Hg][Cl] [Compound 353255] | 3.3 | – | –
CC(=O)OCC(OC(C)=O)C(OC(C)=O)C(/C=C/N=[N+]([O-])c1ccccc1)OC(C)=O (stereo not shown) [Compound 102003] | 0.42 | 9.46 | –
COc1ccc(Cc2cncc3c(O)c(OC)ccc23)cc1O [Compound 131747] | 2.54 | 3.25 | –
COc1ccc(NNc2ccc(OC)cc2)cc1 [Compound 86489] | 2.73 | 3.17 | –
Cc1cc(N=Nc2ccccc2C)c(N)cc1N [Compound 400939] | 2.36 | 3.56 | –
Cc1nc2cc3c(cc2n2cccc12)oc1ccccc13 [Compound 346212] | – | 5.7595 | 5.376
O=C(Nc1ccc2ccccc2c1)c1ccccc1Cl [Compound 204548] | 2.82 | 3.99 | –
C=[CH][Sn]([CH]=C)([S]c1cccc2cccnc12)[S]c1cccc2cccnc12 [Compound 628594] | 3.94 | – | –
Br.CCC1=C(C)/C(=C/c2[nH]c(C)c(CC)c2C)N=C1C [Compound 87240] | 1.45 | 37.28 | –
C=CC(=O)N1C/C(=C\c2ccc(Cl)cc2)C(=O)/C(=C/c2ccc(Cl)cc2)C1 [Compound 687849] | 0.88 | 12.02 | –
COc1ccc2c3c(ccc2c1)[C@@H]1C/C(=C(\OC(C)=O)C(F)(F)F)C(=O)[C@@]1(C)CC3 [Compound 45226] | 3.03 | 7.27 | –
Cl.NC[CH2][Sn]([c]1ccccc1)([CH]1CCCCC1)[CH]1CCCCC1 [Compound 604861] | 0.8 | 4.82 | –
c1cc[c]([Hg][O]c2cccc3cccnc23)cc1 [Compound 66326] | – | 5.2 | –

— US9932300B2, “N,N′-diarylurea compounds and N,N′-diarylthiourea compounds as inhibitors of translation initiation” (President and Fellows of Harvard College, priority 2009, dated 2018)
